Data from US20090143419A1, “METHODS AND COMPOSITIONS FOR CONTROLLING ECTOPARASITES” (HATCHTECH PTY LTD, priority 2005, published 2009).

Columns and labels:
[1] = tested on: lice hatching proteases in the egg shell washings (ESW); assay: Gelatine substrate SDS-PAGE of egg shell washings treated with protease inhibitors; format: biochemical, Pediculus humanus humanus; details: 10 mM inhibitor; 3 hrs at 37° C.
Method: Within 12 hours of hatching 50 body lice eggs (Pediculus humanus humanus) were removed from the hair and placed in a 1 ml eppendorf tube. 20 μL of distilled water was added to the unhatched eggs and the preparation incubated for 30 minutes at 32° C. The 20 μL was recovered, freeze dried and stored at −70° C. A number of other samples were also collected as described. Hair samples from which unhatched lice eggs had been removed were also collected and incubated as described above. In addition, a sample of unhatched eggs and a sample of hair from which lice eggs had been removed were collected 7 days post laying (within 24 hrs of egg hatching). Both samples were washed in 10 mls of a 1% solution of sodium hypochlorite for 1 minute followed by a 5×1 minute washes in 25 mls in distilled water to remove the hypochlorite. These samples were then incubated in 20 μL of distilled water as described above. In addition, a group of 25 lice eggs that were within 24 hours of hatching, were pretreated with 1% sodium hypochlorite, washed as described above and left to hatch. Within 1-2 hours after hatching the empty egg shells were incubated in 20 μL of distilled water as described above, the washings collected from the hatched egg shells and stored at −70° C. All of the extract samples were then freeze-dried overnight. The freeze-dried samples were then resuspended in 15 μL of non-reducing SDS sample buffer, centrifuged at 10,000 g for 2 minutes and the entire 15 μL loaded on to 10% gelatine substrate SD S-PAGE gels. Gels were run at 4° C. for 10 minutes at 10 mA followed by a further 25 minutes at 15 mA per gel. They were then incubated for 2×20 minutes in a 2.5% Triton-X 100 solution followed by a three hour incubation in 0.1M Tris/HCl containing 1 mM CaCl2 pH 8.0. Activity was detected as clear areas on the gel the result of protease activity degrading the gelatine within the gel.
10% SDS-PAGE gelatine substrate gels were loaded with freeze dried egg shell washings from 100 lice eggs that had been resuspended in 50 μl of non-reducing sample buffer with samples run at 10 μl per lane. Gels were run at 4° C. for 10 minutes at 10 mA per gel followed by a further 25 minutes at 15 mA per gel. Gels were then cut into strips and each strip incubated for 2×20 minutes in a 2.5% Triton-X 100 solution containing a specific inhibitor. The inhibitors used were the serine protease inhibitor PMSF (5 mM), the metalloprotease inhibitor 1,10-phenanthroline (10 mM), the aspartic protease Pepstatin (5 μM) and the cysteine inhibitor E-64 (10 μM). The gel strips were then incubated in 0.1M Tris/HCl containing 1 mM CaCl2 pH 8 containing the different protease inhibitors for 3 hrs at 37° C., before being stained in Coomassie blue and destained as previously described.

[2] = tested on: head lice eggs; assay: Assessment of commercial lice products in the standard lice egg-hatching assay; format: in vivo; details: summary in words
Method: These three products were tested according to manufacturer's recommendations. Groups of eggs (24 hr old) were treated with the different products according to manufacturer's recommendations for the appropriate period of time (5-10 minutes) followed by a rinse for 1-2 minutes in 32° C. water. A positive controls (10 mM 1,10-phenanthroline) and two negative controls (no treatment and 20% Methanol) were also incorporated. Post exposure to the different products, the eggs were rinsed with warm water at 32° C. before being blotted dry on tissue paper and placed at 32° C., 70% RH and left to hatch. A second group of eggs, (48 hr old) were treated as previously described and also left to hatch. This process was repeated at 24 hr intervals on head lice eggs up to 120 hr post laying. This method of assaying inhibitors more closely mirrors the field situation where lice eggs will be at various stages of development on the head and permits the inhibitory effects to be observed on these different stages of the parasite.
These two products were tested according to manufacturer's recommendations. Groups of eggs (24 hr old) were treated with the different products according to manufacturer's recommendations for the appropriate period of time (5-10 minutes) followed by a rinse for 1-2 minutes in 32° C. water. Two negative controls (no treatment and 20% ethanol) were also incorporated. […]

[3] = tested on: Helicoverpa armigera eggs (Tatura×Toowoomba strains); assay: Egg hatching of Helicoverpa armigera; details: Table 14; 10 mM; relative to control
Method: Several hundred Helicoverpa armigera eggs (Tatura×Toowoomba strains) were collected, that had been laid on fine mesh cloth over a 24 hour period.
Batches of Helicoverpa eggs were exposed to a specific inhibitor solution for between 2-10 seconds the excess solution drained by blotting with dry tissue paper. The egg masses were then placed in a humid box at 25 degrees until egg hatch. Control eggs were exposed to absolute methanol as described above.

[4] = tested on: lice eggs; assay: Lice egg-hatch bioassay, eggs treated five days post laying; format: in vivo, clothing lice (Pediculus humanus humanus)
Method: To evaluate the potential effects of protease inhibitors on lice egg hatching it was necessary to develop a reliable in vitro bioassay. Male and female clothing lice were fed on a rabbit as previously described. […] During this period the female lice laid their eggs and attached them to the woven cloth. All lice would then be removed and the eggs permitted to incubate for the following 5 days. […] The eggs would then progress through to their final stages of development and hatch. In untreated control eggs a reliable average percentage hatch of between 85-95 percent was obtained using the in vitro egg hatch assay. […] Lice eggs were laid onto cloth as described above. […] Protease inhibitor solutions were typically prepared as stock solutions and added fresh at the appropriate concentration. Specifically stock solutions were prepared as follows: 1,10-phenanthroline (200 mM in methanol) and bestatin (5 mg/ml in methanol). In addition, the equivalent levels of the solvent were added to the non-inhibitor containing controls eggs to test for any buffer alone effects. Percentage hatch inhibition was calculated as the percentage reduction in egg hatch compared to the untreated control.

[5] = tested on: Plutella xylostella eggs (Waite strain); assay: Egg hatching of Plutella xylostella; details: Table 9; 10 mM; relative to control (100% MeOH)
Method: The egg masses were then placed in a humid box at 25 degrees until egg hatch. Control eggs were exposed to absolute methanol as described above. At day 6 post laying the eggs were assessed from the different treatments and the percentage of egg hatch determined relative to the control as shown in Table 9.
Batches of Plutella eggs that were laid on either fine cloth or parafilm were dipped in a specific inhibitor solution for between 2-10 seconds, the excess solution was drained by blotting with dry tissue paper. The egg masses were then placed in a humid box at 25 degrees until egg hatch. Control eggs were exposed to absolute methanol as described above or not treated. At day 6 post laying the eggs were assessed from the different treatments and the percentage of egg hatch determined relative to the controls as shown in Tables 10 and 11.
Batches of Plutella eggs that were laid on fine cloth were dipped in a specific inhibitor solution for approximately 2 seconds, the excess solution was drained by blotting with dry tissue paper. The egg masses were then placed in a humid box at 25 degrees until egg hatch. Control eggs were exposed to absolute methanol as described above or not treated. At day 6 post laying the eggs were assessed from the different treatments and the percentage of egg hatch determined relative to the control as shown in Table 12.
The egg masses were then placed in a humid box at 25 degrees until egg hatch. Control eggs were exposed to absolute ethanol as described above. On day 6 post laying the eggs were assessed from the different treatments and the percentage of egg hatch determined relative to the control.

## c1cnc2c(c1)ccc1cccnc12 [1,10-phenanthroline]
[1]
  protease activity of the ESW: significant reduction in protease activity
[2]
  ovicidal activity across the different stages of lice egg hatching: highly effective at inhibiting lice egg hatching
[3]
  % Inhibition: able to inhibit egg hatching
[4]; 10 mM, eggs treated 5 days post laying
  egg hatching in lice: significantly inhibited egg hatching
[4]; added within 24 hours of hatching
  inhibition of egg hatching: variable inhibition
[5]
  % Inhibition: significantly inhibit egg hatching
